Measurements reported in ChEMBL document CHEMBL3112445, “Design and synthesis of prostate cancer antigen-1 (PCA-1/ALKBH3) inhibitors as anti-prostate cancer drugs” (Bioorg Med Chem Lett, 2014).
The source made the active and inactive calls. No cut-off for these calls is given here.

Legend:
[1] = system: Mus musculus; assay: Toxicity in human DU145 cells xenografted mouse model assessed as abnormality in organs at 32 mg/kg, sc administered daily for 6 days; type: organism-based, DU-145; set-up: dose 32 mg/kg, route subcutaneous; conditions: in vivo, 144 h
[2] = target: T1, Alpha-ketoglutarate-dependent dioxygenase alkB homolog 3 (Homo sapiens, UniProt Q96Q83); assay: Inhibition of demethylase activity of PCA-1 (unknown origin) using 3-methyl cytosine oligo DNA as substrate after 1 hr by RT-PCR analysis
T1 sequence (Q96Q83 whole entry): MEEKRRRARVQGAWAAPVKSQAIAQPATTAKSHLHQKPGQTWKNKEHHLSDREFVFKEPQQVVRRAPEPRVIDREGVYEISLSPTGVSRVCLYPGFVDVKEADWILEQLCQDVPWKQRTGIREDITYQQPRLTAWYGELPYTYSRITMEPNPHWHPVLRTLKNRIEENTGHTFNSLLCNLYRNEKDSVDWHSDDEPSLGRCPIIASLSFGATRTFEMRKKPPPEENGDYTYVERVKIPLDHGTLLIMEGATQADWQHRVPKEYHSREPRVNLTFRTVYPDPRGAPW

[3] = system: Mus musculus; assay: Toxicity in human DU145 cells xenografted mouse model assessed as abnormal behavior at 32 mg/kg, sc administered daily for 6 days; type: organism-based, DU-145; set-up: dose 32 mg/kg, route subcutaneous; conditions: in vivo, 144 h
[4] = target: T2, Alpha-ketoglutarate-dependent dioxygenase alkB homolog 3 (Homo sapiens) (UniProt Q96Q83); assay: Inhibition of demethylase activity of PCA-1 (unknown origin) using 3-methyl cytosine oligo DNA as […] after 1 hr by RT-PCR analysis
T2 sequence (whole entry): T1 sequence (Q96Q83 whole entry)

[5] = AUC (0 to 24 hrs) in Sprague-Dawley rat serum at 0.5 mg/kg, iv; type: ADME, organism-based; set-up: time < 24 hr, dose 0.5 mg/kg, route intravenous
[6] = Initial plasma concentration in Sprague-Dawley rat serum at 0.5 mg/kg, iv; type: ADME, organism-based; set-up: dose 0.5 mg/kg, route intravenous
[7] = AUC (0 to 24 hrs) in Sprague-Dawley rat serum at 32 mg/kg, po; type: ADME, organism-based; set-up: time < 24 hr, dose 32 mg/kg, route oral
[8] = system: Mus musculus; assay: Toxicity in human DU145 cells xenografted mouse model assessed as body weight at 32 mg/kg, sc administered daily for 6 days; type: organism-based, DU-145; set-up: dose 32 mg/kg, route subcutaneous; conditions: in vivo, 144 h
[9] = Oral bioavailability in Sprague-Dawley rat at 32 mg/kg; type: ADME, organism-based; conditions: in vivo
[10] = Cmax in Sprague-Dawley rat serum at 32 mg/kg, po; type: ADME, organism-based; set-up: dose 32 mg/kg, route oral
[11] = system: DU-145; assay: Antiproliferative activity against human DU145 cells at 10 uM after 7 days by 3-D agar-based WST-assay; type: functional; conditions: DU-145, 168 h
[12] = system: DU-145; assay: Antiproliferative activity against human DU145 cells at 1 uM after 48 hrs by 2-D dish-based WST-assay; type: functional; conditions: DU-145, 48 h
[13] = system: DU-145; assay: Antiproliferative activity against human DU145 cells at 1 uM after 7 days by 3-D agar-based WST-assay; type: functional; conditions: DU-145, 168 h
[14] = system: DU-145; assay: Antiproliferative activity against human DU145 cells at 10 uM after 48 hrs by 2-D dish-based WST-assay; type: functional; conditions: DU-145, 48 h
[15] = Drug level in Sprague-Dawley rat serum at 32 mg/kg, po after 1 hr; type: ADME, organism-based; set-up: dose 32 mg/kg, route oral
[16] = target: T2, Alpha-ketoglutarate-dependent dioxygenase alkB homolog 3 (Homo sapiens); conditions: 10 uM
Description: Inhibition of PCA-1 (unknown origin) at 10 uM

[17] = system: DU-145; assay: Anticancer activity against human DU145 cells xenografted in mouse assessed as tumor growth inhibition at 32 mg/kg, sc administered daily for 6 days; type: functional, organism-based; set-up: dose 32 mg/kg

Compound: COc1ccc(Cc2c(C)[nH]n(-c3nc4ccccc4[nH]3)c2=O)cc1
- Activity [1]: Non-toxic
- IC50 [2]: 0.63 µM
- Activity [3]: Non-toxic

Compound: Oc1c(-c2ccccc2)c(-c2ccccc2)nn1-c1nc2cc(Cl)ccc2[nH]1
- IC50 [2]: 2 µM

Compound: Cc1[nH]n(-c2nc3ccccc3s2)c(=O)c1C
- IC50 [2]: > 10 µM
- inhibition [4]: -3%

Compound: Cc1[nH]n(-c2nc3ccccc3n2C)c(=O)c1C
- IC50 [2]: > 10 µM
- inhibition [4]: 21%

Compound: Cc1ccc2nc(-n3[nH]c(C)c(Cc4ccccc4)c3=O)[nH]c2c1
- AUC(0-t) at 24 h [5]: 0.15 µg·h/mL
- IC50 [2]: 0.67 µM
- C0 [6]: 0.43 µg/mL
- AUC(0-t) at 24 h [7]: 0.69 µg·h/mL
- Activity [8]: Non-toxic
- bioavailability [9]: 7.2%
- Cmax [10]: 0.35 µg/mL

Compound: Cc1ccc2[nH]c(-n3[nH]c(C)c(Cc4ccccc4Cl)c3=O)nc2c1
- IC50 [2]: 0.91 µM

Compound: Cc1[nH]n(-c2nc3ccccc3[nH]2)c(=O)c1Cc1cccc(Cl)c1
- IC50 [2]: 0.54 µM

Compound: Cc1[nH]n(-c2ccccn2)c(=O)c1C
- IC50 [2]: > 10 µM
- inhibition [4]: -4%

Compound: Cc1c(-c2ccccc2)[nH]n(-c2nc3ccccc3[nH]2)c1=O
- IC50 [2]: > 10 µM

Compound: Cc1[nH]n(-c2nc3cc(-c4ccc(Cl)cc4)ccc3[nH]2)c(=O)c1Cc1ccccc1
- inhibition at 10 µM [11]: 100%
- inhibition at 1 µM [12]: 70%
- inhibition at 1 µM [13]: 91%
- IC50 [2]: 1.5 µM
- inhibition at 10 µM [14]: 63%

Compound: Cc1ccc2[nH]c(-n3[nH]c(C)c(Cc4ccc(F)cc4)c3=O)nc2c1
- IC50 [2]: 0.78 µM

Compound: Cc1ccc2nc(-n3[nH]c(C)c(Cc4ccc(C(F)(F)F)cc4)c3=O)[nH]c2c1
- IC50 [2]: 0.57 µM

Compound: Cc1[nH]n(-c2ccccc2)c(=O)c1C
- IC50 [2]: > 10 µM
- inhibition [4]: 20%

Compound: Cc1[nH]n(-c2nc3ccccc3[nH]2)c(=O)c1Cc1ccc(C(C)(C)C)cc1
- IC50 [2]: 4.1 µM

Compound: Cc1[nH]n(-c2nc3ccccc3[nH]2)c(=O)c1Cc1ccccc1Cl
- IC50 [2]: > 10 µM

Compound: Cc1ccc2nc(-n3[nH]c(C)c(Cc4ccccc4)c3=O)[nH]c2c1C
- IC50 [2]: > 10 µM

Compound: Cc1ccc2[nH]c(-n3[nH]c(C)c(C)c3=O)nc2c1
- concentration at 1 h [15]: 1.08 µg/mL
- inhibition at 10 µM [11]: 69%
- inhibition at 1 µM [12]: -11%
- inhibition at 1 µM [13]: 3.8%
- IC50 [2]: 2.6 µM
- inhibition at 10 µM [14]: 19%

Compound: Cc1[nH]n(-c2ccccn2)c(=O)c1C(=O)Nc1ccccc1
- IC50 [2]: 1.7 µM
- inhibition at 10 µM [14]: 25%

Compound: Cc1[nH]n(-c2nc3ccccc3[nH]2)c(=O)c1Cc1ccc(F)cc1
- IC50 [2]: 0.6 µM

Compound: COC(=O)Cc1c(C)[nH]n(-c2nc3ccccc3[nH]2)c1=O
- IC50 [2]: 4.3 µM

Compound: Cc1[nH]n(-c2nc3cc(C(F)(F)F)ccc3[nH]2)c(=O)c1Cc1ccccc1
- inhibition at 10 µM [11]: 92%
- inhibition at 1 µM [12]: 78%
- inhibition at 1 µM [13]: 90%
- IC50 [2]: 0.61 µM
- inhibition at 10 µM [14]: 84%

Compound: Cc1[nH]n(-c2nc3ccccc3[nH]2)c(=O)c1C
- inhibition [16]: 76%
- IC50 [2]: 4 µM
- inhibition at 10 µM [14]: 0.8%

Compound: Cc1[nH]n(-c2ncccn2)c(=O)c1C
- IC50 [2]: > 10 µM
- inhibition [4]: -4%

Compound: Cc1ccc2[nH]c(-n3nc(-c4ccccc4)c(-c4ccccc4)c3O)nc2c1
- IC50 [2]: 5.8 µM

Compound: Cc1ccc(-c2ccc3[nH]c(-n4[nH]c(C)c(Cc5ccccc5)c4=O)nc3c2)cc1
- IC50 [2]: 2.1 µM

Compound: Cc1nn(-c2nc3ccccc3[nH]2)c(O)c1Cc1ccccc1
- inhibition at 10 µM [11]: 90%
- inhibition at 1 µM [12]: 42%
- inhibition at 1 µM [13]: 42%
- IC50 [2]: 0.48 µM
- inhibition at 10 µM [14]: 47%

Compound: Cc1ccc2[nH]c(-n3[nH]c(-c4ccccc4)c(C)c3=O)nc2c1
- IC50 [2]: 3.3 µM

Compound: Cc1[nH]n(-c2nc3ccccc3[nH]2)c(=O)c1Cc1ccc(Cl)cc1Cl
- IC50 [2]: > 10 µM
- inhibition [4]: 11%

Compound: Cc1[nH]n(-c2nc3c(C)cccc3[nH]2)c(=O)c1C
- IC50 [2]: > 10 µM

Compound: Cc1[nH]n(-c2nc3ccc(C(C)(C)C)cc3[nH]2)c(=O)c1Cc1ccccc1
- IC50 [2]: 0.64 µM

Compound: Cc1[nH]n(-c2nc3c(C)cccc3[nH]2)c(=O)c1Cc1ccccc1
- IC50 [2]: 5.9 µM

Compound: Cc1ccc2nc(-n3[nH]c(C)c(Cc4ccc(-c5ccccc5)cc4)c3=O)[nH]c2c1
- IC50 [2]: 5.3 µM

Compound: Cc1[nH]n(-c2nc3cc(-c4ccccc4)ccc3[nH]2)c(=O)c1Cc1ccccc1
- IC50 [2]: 0.81 µM

Compound: O=c1cc(-c2ccccc2)[nH]n1-c1nc2ccccc2[nH]1
- IC50 [2]: 7.2 µM

Compound: Cc1ccc2[nH]c(-n3[nH]c(C)c(Cc4ccc(Cl)cc4)c3=O)nc2c1
- inhibition at 10 µM [11]: 90%
- inhibition at 1 µM [12]: -1%
- inhibition at 1 µM [13]: 2.8%
- IC50 [2]: 0.75 µM
- inhibition at 10 µM [14]: 46%

Compound: Cc1[nH]n(-c2nc3ccccc3[nH]2)c(=O)c1Cc1ccc2ccccc2c1
- IC50 [2]: 0.75 µM

Compound: Cc1[nH]n(-c2nc3ccccc3[nH]2)c(=O)c1Cc1ccc(-c2ccccc2)cc1
- IC50 [2]: 0.72 µM

Compound: COc1ccc(Cc2c(C)[nH]n(-c3nc4ccc(C)cc4[nH]3)c2=O)cc1
- IC50 [2]: 0.68 µM

Compound: Cc1[nH]n(-c2nc3ccccc3o2)c(=O)c1C
- IC50 [2]: > 10 µM
- inhibition [4]: 0%

Compound: Cc1[nH]n(-c2nc3cc(Br)ccc3[nH]2)c(=O)c1Cc1ccccc1
- IC50 [2]: 0.49 µM

Compound: Cc1ccc2[nH]c(-n3[nH]c(C)c(Cc4ccc(C(C)(C)C)cc4)c3=O)nc2c1
- IC50 [2]: 3.7 µM

Compound: O=c1c(Cc2ccccc2)c(-c2ccccc2)[nH]n1-c1nc2ccccc2[nH]1
- IC50 [2]: > 10 µM
- inhibition [4]: 2%

Compound: Cc1[nH]n(-c2nc3cc(Cl)ccc3[nH]2)c(=O)c1Cc1ccccc1
- inhibition at 10 µM [11]: 87%
- inhibition at 1 µM [12]: 86%
- inhibition at 1 µM [13]: 84%
- IC50 [2]: 4.5 µM

Compound: Cc1[nH]n(-c2nc3ccccc3[nH]2)c(=O)c1Cc1ccc(C(F)(F)F)cc1
- IC50 [2]: 0.55 µM

Compound: Cc1[nH]n(-c2nc3ccccc3[nH]2)c(=O)c1Cc1ccc(Cl)cc1
- IC50 [2]: > 10 µM
- inhibition [4]: 46%

Compound: Cc1[nH]n(-c2nc3ccccc3[nH]2)c(=O)c1Cc1ccc(Cl)c(Cl)c1
- IC50 [2]: 3.1 µM

Compound: Cc1[nH]n(-c2nc3ccccc3[nH]2)c(=O)c1CC(=O)O
- IC50 [2]: 15 µM

Compound: Cc1ccc2[nH]c(-n3[nH]c(C)c(Cc4ccc(Cl)c(Cl)c4)c3=O)nc2c1
- IC50 [2]: 0.72 µM

Compound: Cc1ccc2[nH]c(-n3[nH]c(C)c(Cc4ccccc4)c3=O)nc2c1
- inhibition at 10 µM [11]: 81%
- TGI [17]: Active
- inhibition at 1 µM [12]: 35%
- inhibition at 1 µM [13]: 34%
- inhibition at 10 µM [14]: 54%

Compound: Cc1cc(O)n(-c2nc3ccccc3[nH]2)n1
- IC50 [2]: 3.6 µM
